Laboratory results: patent US5834506A, “Dihydropyrones with improved antiviral activity” (Warner-Lambert Company, priority 1997, dated 1998)
Counter-ions that a name gives are not always drawn. Like-named read-outs stand apart in the source and are kept apart here.

How the values were obtained:
HIV-1 protease = target: T1, HIV-1 protease (Human immunodeficiency virus type 1 group M subtype B, UniProt P04585); assay: biochemical; details: read-out: Inhib of HIV-Protease IC50
T1 construct: Recombinant HIV-1 protease (>96% purity); purchased Bachem Bioscience Inc. (King of Prussia, PA)
Excerpt: The testing of specific 5,6-dihydropyrones as inhibitors of the HIV aspartyl protease, based on the study of the hydrolysis of an undecapeptide enzyme substrate, and the testing of the 5,6-dihydropyrones as inhibitors of viral growth and infectivity, based on the study of infection of H9 cell lines by the HIV-1iiib strain, are also disclosed. […] The methods employed follow the procedures of Tummino, et al. (Archives of Biochemistry and Biophysics 1995, 316, 523).
(§1) The compounds of the present invention were evaluated for their in vitro inhibition of HIV-1 protease and for their antiviral efficacy in HIV infected lymphocytes.
Recombinant HIV-1 protease (>96% purity) and HIV protease substrate III (the undecapeptide H-His-Lys-Ala-Arg-Val-Leu-Nph-Glu-Ala-Nle-Ser-NH2,>97% purity) were purchased from Bachem Bioscience Inc. (King of Prussia, PA).
The methods employed follow the procedures of Tummino, et al. (Archives of Biochemistry and Biophysics 1995, 316, 523). […] (total volume, 100 μl). […] The final inhibitor concentrations used were 0 (0.1, 0.2, in some experiments), 0.5, 1, 2, 5, 10, 20, 50, and 100 μM. The solution was mixed, incubated for 5 minutes and the reaction quenched by addition of trifluoracetic acid, 2% final. The (leu-p-nitro-phe) bond of the substrate is cleaved by the enzyme and substrate and products separated by reverse-phase HPLC. Absorbance was measured at 220 nm, peak areas determined, and percentage conversion to product used to calculate percentage control (=[% conversion (+inhibitor)/% conversion (-inhibitor)]×100).

[1] = Cellular toxicity in uninfected CEM cells (TC50); type: cell-based; details: human, inhibits 50% of the viability of uninfected cells
Description: (§2) Compounds were tested in lymphocyte derived CEM cells using the XTT cytopathic procedures and were performed at Southern Research Institute (Buckheit, et. al. Antiviral Res. 1993, 21, 247; see also Weislow, et al. J Nat. Cancer Inst., 1989, 81, 577). Compound concentrations were 0.32, 1, 3.2, 10, 32 and 100 uM. The EC50 represents the concentration of agent which reduces HIV cytopathic effects 50% relative to untreated control. EC95 represents the concentration of agent protecting the cells 95% relative to untreated control. Cellular toxicity of the agents are estimated from the TC50 which represents the concentration of the agent which inhibits 50% of the viability of uninfected cells.

[2] = tested on: HIV in lymphocyte derived CEM cells; assay: Cellular Infection Assay, antiviral efficacy in HIV infected CEM cells (XTT cytopathic procedure); type: cell-based; details: Human immunodeficiency virus 1, CCRF-CEM, CEM cells; for EC95: protecting the cells 95% relative to untreated control; for EC50: reduces HIV cytopathic effects 50% relative to untreated control, read-out: Antiviral Efficacy EC50
Description: as §1, §2

[3] = 6.0 nM HIV-1 protease, 40 μM substrate III, 37° C., 5 minutes

Row | IC50 (HIV-1 protease; [3]) [µM] | EC50 [2] [µM] | IC50 (HIV-1 protease) [µM] | SMILES | CC50 [1] [µM] | EC95 [2] [µM]
1 | 0.0068 | 3.4 | – | Cc1cc(SC2=C(O)CC(C)(CCc3ccc(O)cc3)OC2=O)c(C(C)(C)C)cc1OCCO (racemic) [Example 1, 3-[2-tert-Butyl-4-(2-hydroxy-ethoxy)-5-methyl-phenylsulfanyl]-4-hydroxy-6-[2-(4-hydroxy-phenyl)-ethyl]-6-methyl-5,6-dihydro-pyran-2-one, (+/-)] | > 100 | 18
2 | – | 0.6 | 0.0036 | Cc1cc(SC2=C(O)CC(CCc3ccc(O)cc3)(C(C)C)OC2=O)c(C(C)(C)C)cc1CO (racemic) [Example 2, 3-[2-tert-Butyl-4-hydroxymethyl-5-methyl-phenylsulfanyl]-4-hydroxy-6-[2-(4-hydroxy-phenyl)-ethyl]-6-isopropyl-5,6-dihydro-pyran-2-one, (+/-)] | > 100 | 1
3 | 0.0023 | 1.5 | – | CCNS(=O)(=O)Oc1cc(C(C)(C)C)c(SC2=C(O)CC(C)(CCc3ccc(O)cc3)OC2=O)cc1C (racemic) [Example 3] | 66 | 12
4 | – | 2.5 | 0.0016 | Cc1cc(SC2=C(O)CC(C)(CCc3ccc(O)cc3)OC2=O)c(C(C)(C)C)cc1OS(=O)(=O)N(C)C (racemic) [Example 4] | 71 | 17
5 | 0.0028 | 1.5 | – | Cc1cc(SC2=C(O)CC(CCc3ccc(O)cc3)(C(C)C)OC2=O)c(C(C)(C)C)cc1OCCO (racemic) [Example 5, 3-[2-tert-Butyl-4-(2-hydroxy-ethoxy)-5-methyl-phenylsulfanyl]-4-hydroxy-6-[2-(4-hydroxy-phenyl)-ethyl]-6-isopropyl-5,6-dihydro-pyran-2-one, (+/-)] | 66 | 3.2
6 | 0.0038 | 2.3 | – | Cc1cc(SC2=C(O)CC(C)(CCc3ccc(O)cc3)OC2=O)c(C(C)(C)C)cc1OS(=O)(=O)NC(C)(C)C (racemic) [Example 6, tert-Butyl-sulfamic acid 5-tert-Butyl-4-{4-hydroxy-6-[2-(4-hydroxy-phenyl)-ethyl]-6-methyl-2-oxo-5,6-dihydro-2H-pyran-3-ylsulfanyl}-2-methyl-phenyl ester, (+/-)] | 56 | 8.5
7 | 0.0041 | 0.9 | – | CCCCC1(CCc2ccc(O)cc2)CC(O)=C(Sc2cc(C)c(CO)cc2C(C)(C)C)C(=O)O1 (racemic) [Example 7, 6-Butyl-3-[2-tert-butyl-4-hydroxymethyl-5-methyl-phenylsulfanyl]-4-hydroxy-6-[2-(4-hydroxy-phenyl)-ethyl]-5,6-dihydro-pyran-2-one, (+/-)] | 63 | 3
8 | – | > 55 | 0.035 | Cc1ccc(C(C)(C)C)c(SC2=C(O)CC(CCc3ccccc3)(c3ccccc3)OC2=O)c1 (racemic) [Ref B, 3-(2-tert-Buty5-methyl-phenylsulfanyl)-4-hydroxy-6-phenethyl-6-phenyl-5,6-dihydro-pyran-2-one, (+/-), reference compound] | 55 | –
9 | 0.0048 | 1.4 | – | CCNS(=O)(=O)Oc1cc(C(C)(C)C)c(SC2=C(O)CC(CCc3ccc(O)cc3)(C3CCCCC3)OC2=O)cc1C (centres unmarked) [Example 8, Ethyl-sulfamic acid 5-tert-butyl-4-{6-cyclohexyl-4-hydroxy-6-[2-(4-hydroxy-phenyl)-ethyl]-2-oxo-5,6-dihydro-2H-pyran-3-ylsulfanyl}-2-methyl-phenyl ester] | 67 | 5.3
10 | – | 0.5 | 0.0025 | Cc1cc(SC2=C(O)CC(CCc3ccc(O)cc3)(C3CCCCC3)OC2=O)c(C(C)(C)C)cc1CO (centres unmarked) [Example 9, 3-(2-tert-Butyl-4-hydroxymethyl-5-methyl-phenylsulfanyl)-6-cyclohexyl-4-hydroxy-6-[2-(4-hydroxy-phenyl)-ethyl]-5,6-dihydro-pyran-2-one] | 75 | 1.2
11 | 0.0029 | 3.1 | – | Cc1cc(SC2=C(O)CC(CCc3ccc(O)cc3)(C3CCCCC3)OC2=O)c(C(C)(C)C)cc1O (centres unmarked) [Example 10, 3-(2-tert-Butyl-4-hydroxy-5-methyl-phenylsulfanyl)-6-cyclohexyl-4-hydroxy-6-[2-(4-hydroxy-phenyl)-ethyl]-5,6-dihydro-pyran-2-one] | 73 | 8.9
12 | 0.013 | 3.7 | – | Cc1cc(SC2=C(O)CC(C)(CCc3ccc(O)cc3)OC2=O)c(C(C)(C)C)cc1N (centres unmarked) [Example 11, 3-(4-Amino-2-tert-butyl-5-methyl-phenylsulfanyl)-4-hydroxy-6-[2-(4-hydroxy-phenyl)-ethyl]-6-methyl-5,6-dihydro-pyran-2-one monohydrochloride] | > 100 | 9.1
13 | 0.0021 | 5 | – | Cc1cc(SC2=C(O)CC(C)(CCc3ccc(O)cc3)OC2=O)c(C(C)(C)C)cc1NS(=O)(=O)c1ccc(C#N)cc1 (centres unmarked) [Example 13, N-(5-tert-Butyl-4-{4-hydroxy-6-[2-(4-hydroxy-phenyl)-ethyl]-6-methyl-2-oxo-5,6-dihydro-2H-pyran-3-ylsulfanyl}-2-methyl-phenyl)-4-cyano-benzenesulfonamide] | > 100 | 20
14 | 0.0013 | 6.3 | – | Cc1cc(SC2=C(O)CC(CCc3ccc(O)cc3)(CCc3ccc(O)cc3)OC2=O)c(C(C)(C)C)cc1CO [Example 14, 3-(2-tert-Buty-4-hydroxymethyl-5-methyl-phenylsulfanyl)-4-hydroxy-6,6-bis-[2-(4-hydroxyphenyl)ethyl]-5,6-dihydro-pyran-2-one] | 69 | 24
15 | 0.0031 | 3.7 | – | Cc1cc(SC2=C(O)CC(CCc3ccc(N)cc3)(c3ccccc3)OC2=O)c(C(C)(C)C)cc1CO (centres unmarked) [Example 15, 6-[2-(4-aminophenyl)ethyl]-3-(2-tert-butyl-4-hydroxymethyl-5-methyl-phenylsulfanyl)-4-hydroxy-6-phenyl-5,6-dihydro-pyran-2-one] | 94 | 9.4
16 | 0.0016 | 1.2 | – | Cc1cc(SC2=C(O)CC(CCc3ccc(N)cc3)(CCc3ccc(N)cc3)OC2=O)c(C(C)(C)C)cc1CO [Example 16, 6,6-Bis-[2-(4-aminophenyl)ethyl]-3-(2-tert-butyl-4-hydroxymethyl-5-methyl-phenylsulfanyl)-4-hydroxy-5,6-dihydro-pyran-2-one] | 72 | 15
17 | 0.0039 | 1.9 | – | Cc1cc(SC2=C(O)C[C@@](CCc3ccccc3)(c3ccccc3)OC2=O)c(C(C)(C)C)cc1CO [Example 17, 3-(tert-Butyl4-hydroxymethyl-5-methyl-phenylsulfanyl)-4-hydroxy-6-phenethyl-6-phenyl-5,6-dihydro-pyran-2-one (S isomer)] | 60 | 7.5
18 | 0.0029 | 5 | – | Cc1cc(SC2=C(O)CC(CCc3ccc(O)cc3)(CCc3ccc(O)cc3)OC2=O)c(C(C)(C)C)cc1N [Example 20, 3-(4-Amino-2-tert-butyl-5-methyl-phenylsulfanyl)-4-hydroxy-6,6-bis[2-(4-hydroxy-phenyl)ethyl]-5,6-dihydro-pyran-2-one] | 65 | 9.6
19 | – | < 0.3 | – | Cc1cc(SC2=C(O)C[C@@](CCc3cccc(O)c3)(C3CCCC3)OC2=O)c(C(C)(C)C)cc1CO [Example 40] | > 100 | < 0.3
20 | – | 0.8 | – | CCc1cc(SC2=C(O)CC(CCc3ccc(O)cc3)(C(C)C)OC2=O)c(C(C)(C)C)cc1CO (centres unmarked) [Example 97] | > 100 | 2.8
21 | – | 0.33 | – | Cc1cc(CCC2(C(C)C)CC(O)=C(Sc3cc(C)c(CO)cc3C(C)(C)C)C(=O)O2)ccc1O (centres unmarked) [Example 100] | 84 | 0.9
